{
  "source": "patent US10942183B2",
  "about": "“Methods of detecting progesterone receptor and of detecting an expression level” (REGENTS OF THE UNIVERSITY OF MINNESOTA, priority 2017, dated 2021)",
  "key": {"[1]": {"system": "PR Ser294 phosphorylation", "experiment": "Breast tumor explants, phospho-Ser294 PR IHC", "type": "cell-based, human", "conditions": "progesterone 10 nM plus U0126 (1 nM as printed elsewhere in the source), 2 hours", "from_the_text": "De-identified breast tumor samples were collected after surgery and immediately processed for tissue explant maintenance on sponges in cell culture medium, as previously described (Ravindranathan et al. Nature Communications 2013, 4:1923). Samples were derived from six patients pathologically diagnosed with invasive ductal carcinoma (IDC) and scored positive for ER (94-100%) and PR (1-100%), and negative for HER2 expression. […] In additional experiments, six explants were similarly treated with estrogen or progesterone (2 hours) but in combination with 1 uM U0126 (to inhibit ERKs 1/2) and phospho-Ser294 PR levels were measured by IHC.\nER+ luminal tumors were maintained as explants as above and instead treated with either vehicle or progesterone (10 nM) for 2 hours in the presence or absence of the MEK1/2 inhibitor U0126 (1 nM) prior to IHC staining using specific antibodies for total and phospho-Ser294 PR as well as ER-alpha and phospho-ERK1/2 (n=6; see Methods)."}, "[2]": {"system": "PR Ser294 phosphorylation", "experiment": "PR Ser294 phosphorylation in T47D cells (Western blotting, immunofluorescence)", "type": "cell-based, human", "conditions": "T47D cells expressing WT or KR PR", "procedure": "T47D human breast cancer cell lines engineered to stably express PR variants (null, WT, K388R, or S294A) were previously described (Knutson et al. Breast Cancer Res 2012, 14:R9). T47D cells were maintained in complete minimal essential medium (cMEM) supplemented with 5% fetal bovine serum (FBS), 1% non-essential amino acids (NEAA), 1% penicillin/streptomycin, 6 ng/ml insulin (CellGro, Manassas, Va., USA, catalog #10-010-CV). T47D cells described above were engineered to also stably express RUNX2 shRNAs via the pLKO.1 knockdown expression vector system, which required 25 μg/ml puromycin for the vector. In various experiments, cells or explants were treated with E2, ICI 182 780, R5020, mifepristone, aglepristone, or onapristone (Arno Therapeutics, Inc., Flemington, N.J.).\nImmunocytochemistry was performed on T47D cells expressing PR variants to measure total- and phospho-Ser294 PR levels. 500,000 cells were grown on coverslips in 6-well plates, starved in IMEM plus 5% charcoal stripped FBS, treated, and fixed with 4% paraformaldehyde for 20 min. The cells were permeabilized with 0.3% Triton-X100 before incubating with total-PR (clone Ab8, ThermoFisher Scientific, Waltham, Mass.) or custom phospho-Ser294-PR (clone 8508) antibodies. Cells were incubated with fluorescent secondary antibodies (Alexa Fluor 488) and DAPI mounting medium (Life Technologies, ThermoFisher Scientific, Waltham, Mass.) before visualizing on a Zeiss microscope with A4 and L5 filter cubes. Immunoblotting was performed as previously described (Daniel et al. Mol Endocrinol 2007, 21:2890-2906).\nIn addition, extensive luminal breast cancer heterogeneity may limit the ability to observe a subset of PR-driven breast cancers without patient selection. In this case, PR target gene expression may provide an accurate means of predicting which breast tumors are likely to be influenced by PR-driven biological pathways enacted by active phospho-Ser294 PRs. To probe changes in PR target gene expression in the presence or absence of commonly used PR ligands (R5020, RU486), including diverse antiprogestins (aglepristone, onapristone) currently in development for clinical use, the well characterized model system of T47D breast cancer cells, stably expressing either unmodified wild-type (WT) PR-B or a transcriptionally hyperactive form of deSUMOylated K388R PR-B (KR; this receptor faithfully mimics phosphorylated PR-B with regard to target gene selection) were used (Knutson et al. Pharmacology & therapeutics 2014, 142:114-125; Daniel et al. Mol Endocrinol 2007, 21:2890-2906). Whether the antiprogestins mifepristone (also called RU486), aglepristone, or onapristone alter PR Ser294 phosphorylation were tested in these T47D breast cancer models. Cells were treated for 1 hour with vehicle, progesterone, mifepristone, aglepristone, or onapristone and whole cell lysates were processed for Western blotting or immunofluorescence (IF) analysis (FIG. 4A, B). […] Greater loss of total KR PR protein was also apparent in the presence of progesterone and selected antiprogestins relative to liganded WT PR, consistent with increased turnover of deSUMOylated active receptors relative to intact WT PRs."}, "[3]": {"system": "PR target gene expression", "experiment": "Global gene expression analysis (Illumina HT-12v4) in T47D cells expressing WT or K388R PR-B", "type": "cell-based, human", "conditions": "T47D KR PR, antiprogestin 10^-7 M, 6 hours", "procedure": "For genome-wide microarray expression analysis, T47D cells expressing pIRES-neo3 empty vector, WT PR, or K388R PR were serum starved in modified improved minimum essential media (IMEM) (Gibco, ThermoFisher Scientific, Waltham, Mass.) for one day before treatment. Eight groups were treated with vehicle control, progesterone (10^−8 M), mifepristone (10^−7 M), aglepristone (10^−7 M), onapristone (10^−7 M), or combined treatment of progesterone+mifepristone, progesterone+aglepristone, or progesterone+onapristone for six hours before RNA extraction using a RNeasy kit (QIAgen). DNase I treated (QIAgen) RNA samples from triplicate experiments were prepared for expression analysis using the Illumina HT-12v4 bead chip platform according to standard protocols. Raw data from agonist-treated cells (progesterone or R5020) collected from two identically performed independent experiments (from this study and a previous study: GSE34148 (Knutson et al. Breast Cancer Res 2012, 14:R95)) was combined, normalized, and batch-corrected to ensure that gene expression values were informative across samples from separate experiments. Data were analyzed within multiple common R (R Core Team: R: A language and environment for statistical computing. R Foundation for Statistical Computing, Vienna, Austria 2015, [available on the world wide web at r-project.org/]) and Bioconductor (Gentleman et al. Genome Biol 2004, 5:R80) packages. Raw intensities were log 2 transformed and quantile normalized using lumi (Du et al. Bioinformatics 2008, 24:1547-1548), batch corrected using sva (Leek et al.: sva: Surrogate Variable Analysis. R package version 3.18.0.), and multiple probes for a single gene were collapsed using genefilter (Gentleman et al.: genefilter: genefilter: methods for filtering genes from high-throughput experiments. R package version 1.52.1). Differentially expressed genes (pairwise comparisons between all eight groups) were analyzed in limma (Smyth: Limma: linear models for microarray data. In: Bioinformatics and computational biology solutions using R and Bioconductor. edn.: Springer; 2005: 397-420), where empirical Bayes was used to better estimate the variance of the genes. Biological comparisons (for example, R5020/vehicle) were presented as log 2 fold change including the Benjamini and Hochberg (BH) adjusted P value (Benjamini et al. J Roy Stat Soc B Met 1995, 57:289-300) to account for multiple hypothesis testing. Expression data is available in the GEO database, accession: GSE94363.\nNormalized gene expression data were filtered to isolate only high variance genes using the bioconductor package genefilter (Gentleman et al.: genefilter: genefilter: methods for filtering genes from high-throughput experiments. In., R package version 1.50.0 edn: R package version 1.50.0) using interquartile range cutoff value of 0.85. Non-negative matrix factorization (NMF) was performed within R using the NMF package version 0.20.5 (Gaujoux et al. BMC bioinformatics 2010, 11:367) where matrix factors were rank (2-10) and algorithm (brunet or snmf/r) optimized using the nmf function with parameters nrun=30 and seed=123456. […] Clustering and plots were performed in R (NMF package, a heat map function) using Euclidean distance and UPGMA (average) linkage.\nPR ligand-mediated promoter selectivity remains understudied, especially in the context of antiprogestins and posttranslationally modified PR species. […]"}, "[4]": {"system": "T47D cells", "experiment": "Mammosphere formation in T47D cells", "type": "cell-based, human", "conditions": "T47D EV, WT, KR or S294A PR-B; estrogen 1 nM, progesterone 10 nM; 14 days", "procedure": "Primary Mammospheres: Adherent cells were washed with PBS and dissociated enzymatically in 0.25% trypsin-EDTA (Invitrogen Corporation, Carlsbad, Calif.). Cells were sieved through a 40-μm sieve (BD FALCON, BD Biosciences, Bedford, Mass.) and analyzed microscopically for single-cellularity. Single cells were plated in ultra-low attachment plates (Corning, Inc., Corning, N.Y.) and cultured in a humid incubator. Cells were grown in a serum-free mammary epithelial basal medium (MEBM; Lonza Group, Basel, Switzerland) containing 1% B27 Supplement (Invitrogen Corporation, Carlsbad, Calif.), 1% penicillin-streptomycin (Invitrogen Corporation, Carlsbad, Calif.), 5 μg/ml insulin (Invitrogen Corporation, Carlsbad, Calif.), 20 ng/ml EGF (Sigma-Aldrich, St. Louis, Mo.), 1 ng/ml hydrocortisone (Sigma-Aldrich, St. Louis, Mo.), and 100 μM β-mercaptoethanol. […] Mammosphere Forming Efficiency (MFE) % was calculated by the number of mammospheres per well/number of cells seeded per well.\nSecondary Mammospheres: Primary mammospheres were collected by centrifugation (5 min, 1000 rpm), and dissociated enzymatically in 0.25% typsin-EDTA. Cells were sieved through a 40-μm tip strainer (Bel-Art SP Scienceware, South Wayne, N.J.) and analyzed microscopically for single-cellularity. […] Mammosphere Forming Efficiency (MFE) % was calculated by the number of mammospheres per well/number of cells seeded per well. […]"}, "[5]": {"system": "breast cancer", "conditions": "women receiving tamoxifen; cited from earlier work"}},
  "data": [
    {"smiles": "N#CC(=C(/N)Sc1ccccc1N)/C(C#N)=C(\\N)Sc1ccccc1N", "note": "[U0126]", "values": [
      {"measurement": "effect on progesterone-induced PR Ser294 phosphorylation in tumor explants", "setting": "[1]", "result": "blocked"}
    ]},
    {"smiles": "C/C=C\\[C@]1(O)CC[C@H]2[C@@H]3CCC4=CC(=O)CCC4=C3[C@@H](c3ccc(N(C)C)cc3)C[C@@]21C", "note": "[aglepristone]", "values": [
      {"measurement": "PR Ser294 phosphorylation, ligand alone", "setting": "[2]; 1 hour", "result": "stimulated robust PR Ser294 phosphorylation"},
      {"measurement": "PR Ser294 phosphorylation in the presence of progesterone (co-treatment)", "setting": "[2]; progesterone plus antiprogestin", "result": "also induced Ser294 phosphorylation"},
      {"measurement": "regulation of PR target genes in cells expressing KR PR", "setting": "[3]", "result": "substantially regulate multiple genes in cells expressing KR PR"}
    ]},
    {"smiles": "C[C@]12CC[C@@H]3c4ccc(O)cc4CC[C@H]3[C@@H]1CC[C@@H]2O", "note": "[estrogen, estradiol]", "values": [
      {"measurement": "total numbers of primary and secondary mammospheres on addition of hormone to culture media", "setting": "[4]", "result": "had no significant effect on total numbers in any condition"}
    ]},
    {"smiles": "CC/C(=C(\\c1ccccc1)c1ccc(OCCN(C)C)cc1)c1ccccc1", "note": "[tamoxifen]", "values": [
      {"measurement": "women suffering tumor relapse", "setting": "[5]", "result": "~40", "unit": "%"}
    ]}
  ]
}
